Patent publication US20150148311A1, “NON-SYSTEMIC TGR5 AGONISTS” (Ardelyx, Inc., priority 2011, published 2015)

Tests used:
[1] = Compound concentration in gallbladder 16 hours post dose; format: in vivo; conditions: 30 mg/kg; for Number of Mice with Gallbladder Concentration < LLOQ: mice below LLOQ / mice in group; for concentration at 16 h: male, C57BL/6, mouse, gallbladder (homogenate, with contents), mice, gallbladder, read-out: Mean Example Gallbladder Concentration
Protocol: Compound concentrations in the gall bladder were determined as follows: each mouse was heavily anesthetized with isoflurane, the peritoneal cavity was opened and the gallbladder, with its entire contents, was carefully excised. After harvest, gall bladders were homogenized in 100 μL water using a micro-homogenizer. Samples of homogenate were diluted 1:5 in water and precipitated with three volumes of neat acetonitrile. After centrifugation, supernatants were analyzed by LC-MS/MS. The level of test compound present in gall bladder samples was interpolated from a standard curve for each individual compound prepared in a matrix of gallbladder homogenate from vehicle treated animals.
C57BL/6 male mice on regular chow had food removed (to prevent gallbladder emptying) and were dosed in the early evening with vehicle (2% DMSO in 0.4% hydroxypropyl methylcellulose) or 30 mg/kg of examples 176, 177, or 178 formulated in vehicle. The next morning (˜16 h post-dose), mice were heavily anesthetized with isoflurane, the peritoneal cavity was opened and gallbladders (with contents) were carefully excised and weighed. Compound levels in gallbladder were analyzed as described in Example 293.

[2] = molecular target: T1, endogenously expressed TGR5 in NCI H716 (Homo sapiens, UniProt Q8TDU6); experiment: Cell-based TGR5 assay, NCI-H716 cells endogenously expressing human TGR5, cAMP by HTRF; conditions: 30 min at 37 C, 22 nM to 50 μM, read-out: pEC50 endogenously expressed TGR5 in NCI H716 (converted)
T1 construct: human caecum carcinoma cell line NCI-H716 which endogenously expresses human TGR5; endogenous in cells; host or cells: NCI-H716
T1 sequence (Q8TDU6 1-330): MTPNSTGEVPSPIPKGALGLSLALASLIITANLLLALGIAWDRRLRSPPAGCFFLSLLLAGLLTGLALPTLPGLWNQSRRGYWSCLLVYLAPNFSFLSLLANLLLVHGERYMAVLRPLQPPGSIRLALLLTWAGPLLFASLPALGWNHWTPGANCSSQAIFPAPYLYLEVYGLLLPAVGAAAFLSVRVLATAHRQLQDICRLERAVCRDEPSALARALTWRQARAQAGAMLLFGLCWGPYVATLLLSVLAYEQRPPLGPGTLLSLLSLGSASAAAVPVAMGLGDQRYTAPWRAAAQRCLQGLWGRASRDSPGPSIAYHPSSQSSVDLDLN
In short: (§1)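 cAMP HTRF read-out, converted to concentration via standard curve, after a 30 min, 37 °C compound exposure in HBSS with 10 mM HEPES pH 7.4 and 0.5 mM IBMX, compounds serially diluted 3-fold from 10 mM DMSO stock then 100-fold. Cells: stable human TGR5 HEK293, or NCI-H716 expressing TGR5 endogenously.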

[3] = molecular target: T2, human TGR5 (Homo sapiens, UniProt Q8TDU6); experiment: Cell-based TGR5 assay, HEK293 cells stably expressing human TGR5, cAMP by HTRF; conditions: HEK293 cells stably expressing human TGR5, 30 min at 37 C, 0.05 nM to 10 μM, read-out: pEC50 Human TGR5 (converted)
T2 construct: expressed in transfected cells
T2 sequence (Q8TDU6 1-330): T1 sequence (Q8TDU6 1-330)
In short: as §1

[4] = test system: CD-1 female mice; experiment: In vivo measurement of CCK-mediated gallbladder emptying (egg yolk); conditions: fasted ~16 h, oral 30 mg/kg (devazepide 1 mg/kg) 1 h before egg yolk, gallbladder weighed 15 min later (FIG. 1)
Protocol: CD-1 female mice on regular chow had food removed (to prevent gallbladder emptying) in the late evening. The next morning (˜16 h later), groups of mice were dosed orally with vehicle (10% hydroxypropyl-β-cyclodextrin; 2 groups), devazepide in water (1 mg/kg; […]. One hour later, 1 group of vehicle-treated mice was dosed orally with saline, and all other groups were dosed orally with lyophilized egg yolk [0.75 mL; 30% (wt/vol) reconstituted in saline for induction of CCK-mediated gallbladder emptying]. Fifteen minutes later, mice were heavily anesthetized with isoflurane, the peritoneal cavity was opened and gallbladders (with contents) were carefully excised and weighed.

[5] = test system: C57BL/6 male mice; experiment: In vivo gallbladder measurement (weight) 16 hours post-dose; conditions: 30 mg/kg
[6] = test system: total (t) GLP-1; experiment: Time course of in vivo induction of total GLP-1; conditions: C57BL/6 male mice, 30 mg/kg oral, 4, 8, 12 and 16 h
Protocol: (§2) C57BL/6 male mice on regular chow received an oral dose of vehicle (2% DMSO in 0.4% hydroxypropyl methylcellulose) or examples 176 or 178 (at 30 mg/kg). Food was removed prior to/or at the time of dosing: 4, 8, 12, and 16 h groups fasted for 7, 8, 12 and 16 h, respectively. At the appropriate time after dosing, mice were heavily anesthetized with isoflurane, and blood was collected from the left ventricle of the heart and processed to plasma as described in Example 293 for measurement of total (t) GLP-1 and, additionally, total (t)PYY (N45ZA-1; Meso Scales Discovery, Gaithersburg Md.).

[7] = test system: total (t)PYY; experiment: Time course of in vivo induction of total PYY; conditions: C57BL/6 male mice, 30 mg/kg oral, 4, 8, 12 and 16 h
Protocol: as §2

[8] = Compound plasma concentration, LC-MS/MS, 8 h post dose; format: in vivo; conditions: 30 mg/kg
In short: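 Blood was taken from the left ventricle 8 h after dosing, under isoflurane anesthesia, into EDTA tubes containing aprotinin and DPPIV inhibitor. Plasma was protein-precipitated with acetonitrile containing an internal standard, and supernatants were analyzed by LC-MS/MS against a plasma standard curve.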

[9] = Compound concentration in gall bladder, LC-MS/MS, 8 h post dose; format: in vivo; conditions: 30 mg/kg
In short: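 Gallbladder with its contents excised from isoflurane-anesthetized mice 8 h after dosing and homogenized in water. Homogenate diluted 1:5, precipitated with acetonitrile and measured by LC-MS/MS. Levels interpolated from per-compound standard curves in vehicle-treated gallbladder homogenate.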

[10] = mice below LLOQ / mice in group

Number of Mice with Gallbladder Concentration < LLOQ [1] | concentration at 16 h [1] | EC50 [2] | EC50 [3] | inhibition of CCK-mediated gallbladder emptying [4] | Number of Mice with Plasma Concentration < LLOQ [8, 10] | concentration at 8 h ([8]; male, C57BL/6, mouse, mice, plasma, read-out: Mean Example Plasma Concentration) | Number of Mice with Gallbladder Concentration < LLOQ [9, 10] | concentration at 8 h ([9]; male, C57BL/6, mouse, with contents, mice, gallbladder homogenate, read-out: Mean Example Gallbladder Concentration) | SMILES | effect on gallbladder weight/body weight [5] | induction of tGLP-1 levels following a single oral dose [6] | induction of tPYY levels following a single oral dose [7]
0/6 | 30 nM | 1260 to 50100 nM | 126 to 1000 nM |  |  |  |  |  | O=C(O)CCc1cc(Cl)c(CNC2(C(=O)N3CCN(C4CC4)c4ccccc43)CC2)cc1Cl [Example 83, 3-(2,5-dichloro-4-(((1-(4-cyclopropyl-1,2,3,4-tetrahydroquinoxaline-1-carbonyl)cyclopropyl)amino)methyl)phenyl)propanoic acid] |  |  | 
0/6 | 200 nM | 1260 to 50100 nM | 126 to 1000 nM |  |  |  |  |  | O=C(N1CCCc2cccnc21)C1(OCc2cc(Cl)ccc2Cl)CC1 [Example 85, 1-([1-[(2,5-dichlorophenyl)methoxy]cyclopropyl]carbonyl)-1,2,3,4-tetrahydro-1,8-naphthyridine] |  |  | 
 |  |  |  | did not inhibit | 8/8 | < 2 ng/mL | 0/8 | 100 nM | O=C(NC[C@H](O)[C@@H](O)[C@H](O)[C@H](O)CO)c1ccc(COc2cc(Cl)c(CN3CSC[C@H]3C(=O)N3CCN(C4CC4)c4ccccc43)cc2Cl)cc1 [Example 176, 4-(2,5-dichloro-4-{[(4R)-4-[(4-cyclopropyl-1,2,3,4-tetrahydroquinoxalin-1-yl)carbonyl]-1,3-thiazolidin-3-yl]methyl}phenoxymethyl)-N-[(2S,3R,4R,5R)-2,3,4,5,6-pentahydroxyhexyl]benzamide] | no significant effect | sustained induction | sustained induction
 |  |  |  | did |  |  |  |  | CN1C(=O)[C@@H](NC(=O)c2cc3ccccc3[nH]2)N=C(c2ccccc2)c2ccccc21 [devazepide, reference compound] |  |  | 
